Data published in publication PMC12136037, “Type II kinase inhibitors that target Parkinson’s disease–associated LRRK2” (Science Advances, 2025).
“And” between values parts separate entries of the source, which are not always exact repeats. Identical values can stand only once.

Assays:
LRRK2^RCKW = target: T1, LRRK2^RCKW (Homo sapiens, UniProt Q5S007); assay: Biochemical LRRK2 activity assay (PhosphoSense, AssayQuant SOX peptide AQT0615); settings: for IC50: LRRK2^RCKW kinase activity, in vitro; for normalized response (LRRK2 activity): normalized to 0% (no kinase) and 100% (no inhibitor) control, two singlicate columns per compound
T1 construct: LRRK2 R1327 to E2527; His6-Z-tag (TEV cleavable) (N, cleaved yes); host or cells: Sf9 insect cells (baculovirus)
T1 sequence (Q5S007 1327-2527): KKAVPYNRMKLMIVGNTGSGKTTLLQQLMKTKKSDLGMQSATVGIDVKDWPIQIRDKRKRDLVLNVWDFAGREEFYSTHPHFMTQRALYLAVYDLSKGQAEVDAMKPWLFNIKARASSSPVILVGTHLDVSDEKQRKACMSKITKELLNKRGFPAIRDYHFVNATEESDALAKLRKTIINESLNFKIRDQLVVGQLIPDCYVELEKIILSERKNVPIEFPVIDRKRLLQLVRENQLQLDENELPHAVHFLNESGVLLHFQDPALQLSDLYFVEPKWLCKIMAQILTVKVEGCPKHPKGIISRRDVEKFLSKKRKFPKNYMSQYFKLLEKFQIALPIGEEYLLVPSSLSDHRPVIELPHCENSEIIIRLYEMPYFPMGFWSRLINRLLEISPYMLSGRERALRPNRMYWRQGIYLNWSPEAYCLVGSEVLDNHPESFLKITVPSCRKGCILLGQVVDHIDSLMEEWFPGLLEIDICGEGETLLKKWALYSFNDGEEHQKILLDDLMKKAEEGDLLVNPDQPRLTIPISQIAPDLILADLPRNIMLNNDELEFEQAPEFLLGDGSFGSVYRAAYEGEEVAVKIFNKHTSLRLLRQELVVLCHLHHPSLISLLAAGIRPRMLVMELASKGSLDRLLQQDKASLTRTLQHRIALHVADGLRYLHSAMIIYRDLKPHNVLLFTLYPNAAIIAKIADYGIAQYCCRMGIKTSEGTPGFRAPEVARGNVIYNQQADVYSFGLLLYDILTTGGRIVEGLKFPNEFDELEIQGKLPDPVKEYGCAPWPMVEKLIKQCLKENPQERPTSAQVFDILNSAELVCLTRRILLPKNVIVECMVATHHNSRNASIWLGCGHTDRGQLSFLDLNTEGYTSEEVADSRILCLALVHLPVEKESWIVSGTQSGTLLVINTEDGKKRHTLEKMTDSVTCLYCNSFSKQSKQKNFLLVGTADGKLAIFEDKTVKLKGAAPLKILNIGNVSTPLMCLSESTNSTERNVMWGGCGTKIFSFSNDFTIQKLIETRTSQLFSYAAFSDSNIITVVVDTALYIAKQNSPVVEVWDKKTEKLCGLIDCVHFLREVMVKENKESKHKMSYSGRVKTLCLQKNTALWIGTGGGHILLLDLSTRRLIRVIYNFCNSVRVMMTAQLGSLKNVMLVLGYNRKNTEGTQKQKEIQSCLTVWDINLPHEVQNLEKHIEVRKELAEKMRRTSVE
Procedure, shortened: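 Controls lacked protein and compound (0%) or compound only (100%). IC50 derived by nonlinear regression of normalized response versus log[inhibitor].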

[1] = target: T2, ~100 representative kinases (Homo sapiens, UniProt Q9H4A3); assay: DSF 100 kinase selectivity screen; format: binding; settings: Protein WNK1; DSF; average of three replicates;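 further: compound tested at 20 µM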
T2 construct: Recombinant protein kinase domains with a concentration of 2 μM
T2 sequence (Q9H4A3 whole entry, the tested form may be a part): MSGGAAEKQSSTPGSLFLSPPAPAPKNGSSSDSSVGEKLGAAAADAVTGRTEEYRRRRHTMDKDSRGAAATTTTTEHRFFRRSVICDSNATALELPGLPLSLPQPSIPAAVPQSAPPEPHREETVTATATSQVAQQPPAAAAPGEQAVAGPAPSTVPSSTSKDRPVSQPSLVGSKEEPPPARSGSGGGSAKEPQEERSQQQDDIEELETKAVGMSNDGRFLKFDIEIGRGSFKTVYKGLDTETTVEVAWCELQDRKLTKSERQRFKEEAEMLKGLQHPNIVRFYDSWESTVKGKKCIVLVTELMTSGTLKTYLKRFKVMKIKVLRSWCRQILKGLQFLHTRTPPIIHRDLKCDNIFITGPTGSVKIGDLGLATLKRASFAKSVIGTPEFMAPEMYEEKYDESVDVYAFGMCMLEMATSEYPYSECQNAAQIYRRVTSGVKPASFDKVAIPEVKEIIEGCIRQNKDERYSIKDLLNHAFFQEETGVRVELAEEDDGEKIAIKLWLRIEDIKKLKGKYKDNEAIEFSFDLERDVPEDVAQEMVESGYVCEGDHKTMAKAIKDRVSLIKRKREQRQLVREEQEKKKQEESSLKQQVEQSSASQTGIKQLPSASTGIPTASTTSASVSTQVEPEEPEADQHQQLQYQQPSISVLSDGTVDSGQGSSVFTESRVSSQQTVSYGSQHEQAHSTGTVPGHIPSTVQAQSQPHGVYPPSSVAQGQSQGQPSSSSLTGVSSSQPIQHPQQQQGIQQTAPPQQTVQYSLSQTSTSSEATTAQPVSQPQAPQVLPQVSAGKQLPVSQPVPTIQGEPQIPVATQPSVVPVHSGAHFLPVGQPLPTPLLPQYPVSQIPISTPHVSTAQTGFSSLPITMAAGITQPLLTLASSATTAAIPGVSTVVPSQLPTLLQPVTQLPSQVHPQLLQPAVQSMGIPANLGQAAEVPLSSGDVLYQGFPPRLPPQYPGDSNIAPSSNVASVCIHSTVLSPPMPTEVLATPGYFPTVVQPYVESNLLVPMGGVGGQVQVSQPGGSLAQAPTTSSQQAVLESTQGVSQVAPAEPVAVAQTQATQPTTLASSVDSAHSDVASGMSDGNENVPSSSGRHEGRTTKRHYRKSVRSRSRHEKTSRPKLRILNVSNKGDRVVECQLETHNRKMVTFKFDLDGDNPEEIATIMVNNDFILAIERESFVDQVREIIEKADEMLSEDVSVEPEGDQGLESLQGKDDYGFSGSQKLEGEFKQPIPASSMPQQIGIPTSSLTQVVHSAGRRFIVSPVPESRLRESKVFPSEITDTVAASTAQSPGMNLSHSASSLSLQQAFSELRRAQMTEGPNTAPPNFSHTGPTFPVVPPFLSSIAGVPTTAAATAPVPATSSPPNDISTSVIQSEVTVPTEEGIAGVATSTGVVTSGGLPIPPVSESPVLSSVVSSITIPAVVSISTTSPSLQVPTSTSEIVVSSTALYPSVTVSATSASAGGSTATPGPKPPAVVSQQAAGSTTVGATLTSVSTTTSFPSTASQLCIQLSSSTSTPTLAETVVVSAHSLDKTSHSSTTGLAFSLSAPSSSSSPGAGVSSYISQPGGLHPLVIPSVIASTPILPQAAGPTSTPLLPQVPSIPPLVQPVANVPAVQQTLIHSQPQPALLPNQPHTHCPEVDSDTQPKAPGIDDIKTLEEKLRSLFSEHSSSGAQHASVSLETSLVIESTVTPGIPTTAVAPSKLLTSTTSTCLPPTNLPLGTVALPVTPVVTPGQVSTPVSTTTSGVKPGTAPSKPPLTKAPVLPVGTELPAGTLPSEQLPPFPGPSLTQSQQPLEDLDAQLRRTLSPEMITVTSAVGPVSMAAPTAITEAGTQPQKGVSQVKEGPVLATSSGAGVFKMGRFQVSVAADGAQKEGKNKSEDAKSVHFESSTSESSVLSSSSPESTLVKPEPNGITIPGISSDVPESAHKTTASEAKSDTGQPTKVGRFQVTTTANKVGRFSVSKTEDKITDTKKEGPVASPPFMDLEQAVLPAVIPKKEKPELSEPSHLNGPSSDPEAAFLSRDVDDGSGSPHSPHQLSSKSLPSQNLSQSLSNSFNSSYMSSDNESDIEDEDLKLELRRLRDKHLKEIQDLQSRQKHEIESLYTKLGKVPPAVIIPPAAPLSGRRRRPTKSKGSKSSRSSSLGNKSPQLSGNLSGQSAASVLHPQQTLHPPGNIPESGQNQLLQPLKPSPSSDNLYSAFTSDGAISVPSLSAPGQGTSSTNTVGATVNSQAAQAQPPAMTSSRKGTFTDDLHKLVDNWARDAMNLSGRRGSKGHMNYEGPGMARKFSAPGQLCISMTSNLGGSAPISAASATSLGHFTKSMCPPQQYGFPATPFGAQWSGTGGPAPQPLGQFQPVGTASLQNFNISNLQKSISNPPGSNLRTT
Procedure, shortened: (§1)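 Each kinase domain, at 2 μM, is mixed with 20 μM test compound and SYPRO Orange in Hepes (20 mM, pH 7.5) with 500 mM NaCl. Temperature is then raised at 3°C/min and fluorescence-monitored unfolding yields the melting temperature change, ΔTm in degrees Celsius.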

[2] = target: T3, ~100 representative kinases (Homo sapiens, UniProt Q2M2I8); assay: DSF 100 kinase selectivity screen; format: binding; settings: Protein AAK1; average of three replicates;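 further: compound tested at 20 µM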
T3 construct: Recombinant protein kinase domains with a concentration of 2 μM
Procedure, shortened: as §1

[3] = target: T4, ~100 representative kinases (Homo sapiens, UniProt P12931); assay: DSF 100 kinase selectivity screen; format: binding; settings: Protein SRC; DSF; average of three replicates;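 further: compound tested at 20 µM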
T4 construct: Recombinant protein kinase domains with a concentration of 2 μM
T4 sequence (P12931 whole entry, the tested form may be a part): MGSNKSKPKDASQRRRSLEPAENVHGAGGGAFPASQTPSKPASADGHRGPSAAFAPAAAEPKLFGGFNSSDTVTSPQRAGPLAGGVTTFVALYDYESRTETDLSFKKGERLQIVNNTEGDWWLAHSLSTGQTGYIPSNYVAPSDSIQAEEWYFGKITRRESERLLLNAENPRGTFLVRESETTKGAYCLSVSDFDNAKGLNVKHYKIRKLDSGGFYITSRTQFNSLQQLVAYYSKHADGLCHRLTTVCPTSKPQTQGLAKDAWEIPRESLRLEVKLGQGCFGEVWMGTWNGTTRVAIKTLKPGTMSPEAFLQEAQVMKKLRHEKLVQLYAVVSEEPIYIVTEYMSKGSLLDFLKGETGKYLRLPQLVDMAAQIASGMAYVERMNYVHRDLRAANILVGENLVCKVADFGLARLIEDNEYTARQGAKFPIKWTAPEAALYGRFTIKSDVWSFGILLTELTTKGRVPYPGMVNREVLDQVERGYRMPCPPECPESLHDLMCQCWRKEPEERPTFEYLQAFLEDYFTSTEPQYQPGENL
Procedure, shortened: as §1

[4] = target: T5, ~100 representative kinases (Homo sapiens, UniProt O96013); assay: DSF 100 kinase selectivity screen; format: binding; settings: protein PAK4; average of three replicates;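 further: compound tested at 20 µM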
T5 construct: Recombinant protein kinase domains with a concentration of 2 μM
Procedure, shortened: as §1

[5] = target: T6, ~100 representative kinases (Homo sapiens, UniProt Q5VT25); assay: DSF 100 kinase selectivity screen; format: binding; settings: Protein CDC42BPA; average of three replicates;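 further: compound tested at 20 µM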
T6 construct: Recombinant protein kinase domains with a concentration of 2 μM
T6 sequence (Q5VT25 whole entry, the tested form may be a part): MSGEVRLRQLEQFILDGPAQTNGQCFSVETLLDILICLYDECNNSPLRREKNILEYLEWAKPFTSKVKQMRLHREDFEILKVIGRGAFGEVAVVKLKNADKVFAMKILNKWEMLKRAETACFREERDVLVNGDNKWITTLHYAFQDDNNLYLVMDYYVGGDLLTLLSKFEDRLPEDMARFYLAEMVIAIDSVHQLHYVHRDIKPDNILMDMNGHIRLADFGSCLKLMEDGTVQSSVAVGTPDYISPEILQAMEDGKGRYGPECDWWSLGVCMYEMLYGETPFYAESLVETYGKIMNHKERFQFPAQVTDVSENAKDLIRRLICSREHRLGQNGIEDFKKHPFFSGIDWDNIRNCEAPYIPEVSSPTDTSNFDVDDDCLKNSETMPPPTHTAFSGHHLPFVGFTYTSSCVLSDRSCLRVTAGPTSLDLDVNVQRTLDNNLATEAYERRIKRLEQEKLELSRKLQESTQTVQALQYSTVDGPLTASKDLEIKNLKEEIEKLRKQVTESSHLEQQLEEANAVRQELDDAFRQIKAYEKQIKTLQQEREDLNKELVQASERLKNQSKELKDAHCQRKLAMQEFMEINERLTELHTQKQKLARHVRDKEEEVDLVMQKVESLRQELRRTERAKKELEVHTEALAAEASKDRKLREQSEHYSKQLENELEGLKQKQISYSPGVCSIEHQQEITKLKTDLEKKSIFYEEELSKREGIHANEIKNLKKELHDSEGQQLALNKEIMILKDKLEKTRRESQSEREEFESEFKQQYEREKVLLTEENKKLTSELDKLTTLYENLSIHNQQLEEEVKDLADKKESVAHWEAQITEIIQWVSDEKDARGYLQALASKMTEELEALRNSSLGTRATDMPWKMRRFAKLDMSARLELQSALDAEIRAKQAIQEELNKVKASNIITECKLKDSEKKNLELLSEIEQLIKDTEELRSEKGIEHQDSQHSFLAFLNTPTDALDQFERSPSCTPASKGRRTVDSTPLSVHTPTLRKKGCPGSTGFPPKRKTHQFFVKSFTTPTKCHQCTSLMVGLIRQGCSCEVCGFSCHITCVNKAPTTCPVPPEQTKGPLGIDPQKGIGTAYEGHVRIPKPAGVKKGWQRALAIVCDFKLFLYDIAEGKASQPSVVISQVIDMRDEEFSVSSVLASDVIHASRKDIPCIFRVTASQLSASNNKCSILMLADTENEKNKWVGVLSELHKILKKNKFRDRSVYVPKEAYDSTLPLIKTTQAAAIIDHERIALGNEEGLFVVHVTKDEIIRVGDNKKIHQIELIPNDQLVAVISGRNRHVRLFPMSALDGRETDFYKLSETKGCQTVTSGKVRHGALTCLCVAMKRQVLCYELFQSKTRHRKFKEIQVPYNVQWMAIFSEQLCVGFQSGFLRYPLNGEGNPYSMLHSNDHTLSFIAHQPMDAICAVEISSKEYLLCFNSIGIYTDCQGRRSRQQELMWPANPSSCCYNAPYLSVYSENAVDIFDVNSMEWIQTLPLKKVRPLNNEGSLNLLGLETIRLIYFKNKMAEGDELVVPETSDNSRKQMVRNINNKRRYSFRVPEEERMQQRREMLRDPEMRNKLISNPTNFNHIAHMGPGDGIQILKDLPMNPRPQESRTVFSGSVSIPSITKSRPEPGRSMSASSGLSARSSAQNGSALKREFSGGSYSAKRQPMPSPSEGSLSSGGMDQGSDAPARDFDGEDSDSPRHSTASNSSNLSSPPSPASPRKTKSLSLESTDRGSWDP
Procedure, shortened: as §1

[6] = target: T7, ~100 representative kinases (Homo sapiens, UniProt P27448); assay: DSF 100 kinase selectivity screen; format: binding; settings: protein MARK3; average of three replicates;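 further: compound tested at 20 µM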
T7 construct: Recombinant protein kinase domains with a concentration of 2 μM
Procedure, shortened: as §1

IC50 (LRRK2^RCKW) | normalized response (LRRK2 activity) (LRRK2^RCKW; log[inhibitor(mol)] -5.12494) | normalized response (LRRK2 activity) (LRRK2^RCKW; log[inhibitor(mol)] -5.60206) | normalized response (LRRK2 activity) (LRRK2^RCKW; log[inhibitor(mol)] -6.30103) | normalized response (LRRK2 activity) (LRRK2^RCKW; log[inhibitor(mol)] -6.90309) | normalized response (LRRK2 activity) (LRRK2^RCKW; log[inhibitor(mol)] -7.30103) | normalized response (LRRK2 activity) (LRRK2^RCKW; log[inhibitor(mol)] -7.60206) | normalized response (LRRK2 activity) (LRRK2^RCKW; log[inhibitor(mol)] -8.09691) | normalized response (LRRK2 activity) (LRRK2^RCKW; log[inhibitor(mol)] -8.61979) | normalized response (LRRK2 activity) (LRRK2^RCKW; log[inhibitor(mol)] -9.09691) | normalized response (LRRK2 activity) (LRRK2^RCKW; log[inhibitor(mol)] -9.39794) | dTm [1] | dTm [2] | dTm [3] | dTm [4] | dTm [5] | dTm [6] | normalized response (LRRK2 activity) (LRRK2^RCKW; log[inhibitor(mol)] -4.82391) | Compound
960 ± 33 nM | -0.2711% and -2.401% | 22.7451% and 24.0892% | 67.6419% and 69.4402% | 95.7584% and 98.1889% | 103.897% and 98.4037% | 108.801% and 106.855% | 103.13% and 100.705% | 105.315% and 96.9982% | 106.518% and 101.982% | 107.174% and 104.775% | 0.33 K | 2.03 K | 1.22 K | -0.0471 K | -0.98 K | 6.20 K |  | CCc1ccc(NC(=O)C2(C(=O)Nc3cccc(-c4c[nH]c5ncnc(N6CCOCC6)c45)c3)CC2)cc1 [Compound 15]
1100 ± 217 nM | 0.6005% and -2.272% | 29.0484% and 32.3505% | 66.3591% and 78.0881% | 96.3721% and 94.5984% | 96.366% and 105.259% | 97.2621% and 95.7829% | 97.8759% and 91.3822% | 98.0661% and 96.7588% | 100.497% and 98.6001% | 96.0714% and 99.3612% | -0.0251 K | 1.75 K | 0.65 K | -0.80 K | -1.10 K | 2.45 K | -5.114% and -9.8151% | COc1ccc(NC(=O)C2(C(=O)Nc3cccc(-c4c[nH]c5ncnc(N6CCOCC6)c45)c3)CC2)cc1 [Compound 16]
253 ± 33 nM | -9.447% and -10.6928% | 0.9319% and 1.085% | 26.1821% and 29.3798% | 67.0342% and 72.3494% | 85.8031% and 94.494% | 98.3853% and 103.983% | 103.068% and 102.123% | 111.403% and 110.329% | 113.398% and 109.795% | 105.315% and 104.756% | 0.57 K | 3.45 K | 1.01 K | 0.06 K | -0.72 K | 5.81 K | -1.222% and -11.0979% | O=C(Nc1cccc(-c2c[nH]c3ncnc(N4CCOCC4)c23)c1)C1(C(=O)Nc2ccc(F)c(F)c2)CC1 [Compound 17]
152 ± 44 nM | -12.1904% and -14.2894% | -3.604% and -4.745% |  | 53.6603% and 67.7094% | 89.4919% and 81.5068% |  | 92.5361% and 84.907% | 95.9241% and 92.0144% | 91.7935% and 96.8386% | 94.1994% and 95.2858% | 1.16 K | 4.45 K | 1.18 K | 0.49 K | -0.25 K | 7.07 K |  | O=C(Nc1cccc(-c2c[nH]c3ncnc(N4CCOCC4)c23)c1)C1(C(=O)Nc2ccc(F)c(Cl)c2)CC1 [Compound 18]
264 ± 19 nM | 3.805% and 3.935% | 9.506% and 13.5388% | 29.4238% and 33.7614% | 67.8273% and 68.8623% | 84.3755% and 91.2634% | 88.4282% and 94.2182% | 94.3856% and 94.7313% | 99.7343% and 99.0059% | 100.123% and 100.393% | 97.0165% and 71.9323% | 0.64 K | 3.23 K | -0.25 K | 1.11 K | 0.14 K | 7.11 K | 3.161% and 1.4% | O=C(Nc1cccc(-c2c[nH]c3ncnc(N4CCOCC4)c23)c1)C1(C(=O)Nc2ccc(F)c(Br)c2)CC1 [Compound 19]
110 ± 11 nM | -12.9576% and -4.07% | -8.508% and -7.489% |  | 42.2259% and 43.1588% | 74.6695% and 77.6217% | 88.2582% and 90.1977% | 89.9215% and 96.544% | 106.119% and 94.9298% | 105.603% and 97.4708% | 68.2188% and 102.467% | 0.02 K | 5.13 K | 1.91 K | -0.11 K | -1.13 K | 8.85 K | -5.58% and -14.6884% | Cc1cc(NC(=O)C2(C(=O)Nc3cccc(-c4c[nH]c5ncnc(N6CCOCC6)c45)c3)CC2)ccc1F [Compound 20]
331 ± 59 nM | -8.581% and -13.1049% | -3.229% and 0.9871% | 31.841% and 40.7652% | 74.4117% and 83.0044% | 89.3998% and 91.1429% | 98.2625% and 97.8145% | 90.8667% and 93.1069% | 91.1981% and 94.2547% | 94.6536% and 91.2165% | 100.092% and 102.338% | -0.19 K | 4.69 K | 0.91 K | -0.79 K | -1.17 K | 6.63 K |  | COc1cc(NC(=O)C2(C(=O)Nc3cccc(-c4c[nH]c5ncnc(N6CCOCC6)c45)c3)CC2)ccc1F [Compound 21]
